Measurements reported in patent publication US20210161968A1, “USE OF MICRONEEDLE PATCH TO PROMOTE HAIR GROWTH” (North Carolina State University, priority 2018, published 2021).

Tested on: 7-week-old shaved C57BL/6J mouse model
Assay: Hair loss therapy (hair regrowth) in shaved mouse model
Type: in vivo
Experimental: Animal Studies: C57B/6J mice were used in this work and purchased from Jackson Laboratory (Bar Harbor, Me., United States of America). For in vivo therapy studies, the mice were shaved at postnatal day 50, and treated with an HMN patch loaded with exosomes and/or UK5099 at day 1 and day 5 after hair shave. The patch was pressed firmly for the first 5 seconds to penetrate through the epidermis and then pressed softly for an additional 1 minute to make the patch absorb liquid. The patch base was removed at 4 hours post-insertion into the skin. Topical administration of UK5099 (solvent formulation: ethanol/water/propylene glycol=5/3/2), and subcutaneous injection of exosomes were performed every two days, with the dosage same with that of the corresponding HMN patch. Shaved mice without any treatment were adopted as a control. The clinical agent minoxidil was used via topical administration in a concentration of 3%. The time profile of the hair phenotype transformation was obtained by real-time observation of the hair regrowth in mice. The judgement of the hair follicles in telogen, telogen-anagen transition, and anagen was performed according to a method previously described in the literature. See Oh et al., J. Investig. Dermatol. 2016, 136(1), 34-44. […]

## N#CC(=Cc1cn(-c2ccccc2)c2ccccc12)C(=O)O [UK5099, 2-cyano-3-(1-phenyl-1H-indol-3-yl)-2-propenoic acid]
Delivered via HMN patch, two rounds of administration (day 1 and day 5)
  time for HFSCs to enter into anagen (pigmentation and hair regrowth): about 8 days
Topical administration, seven treatments, compared with HMN administration
  therapeutic effect reflected by the hair covered area: inferior therapeutic effect
